This is an account of results in PMC6742646, “Extensive disruption of protein interactions by genetic variants across the allele frequency spectrum in human populations” (Nature Communications, 2019).

The assay concerns the target T1, AKR7A2 (Homo sapiens, UniProt O43488).
T1 construct: hORFeome ORF cloned EcoRI/XhoI in pET-6xHis-SUMO; E. coli Rosetta; cobalt purified, His-SUMO tag cleaved with Ulp1, FPLC; dimer in solution
Kind of assay: NADPH-dependent SSA reduction, absorbance plate assay. The assay is classed as biochemical. Conditions: 0.5 mM NADPH, sodium phosphate pH 8.0, 37 °C; SSA 0.50-3.5 mM; only kcat/KM printed.

T1 sequence (O43488 whole entry): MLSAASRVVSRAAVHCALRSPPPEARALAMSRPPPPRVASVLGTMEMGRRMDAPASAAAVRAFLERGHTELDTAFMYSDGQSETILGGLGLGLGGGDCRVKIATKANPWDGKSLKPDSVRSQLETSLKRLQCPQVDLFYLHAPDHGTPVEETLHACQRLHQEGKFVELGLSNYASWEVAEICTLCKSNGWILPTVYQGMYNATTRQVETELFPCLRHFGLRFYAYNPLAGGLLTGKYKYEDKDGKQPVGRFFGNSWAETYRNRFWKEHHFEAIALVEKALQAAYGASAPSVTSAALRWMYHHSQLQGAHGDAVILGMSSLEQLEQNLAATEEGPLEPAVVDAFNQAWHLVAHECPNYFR

As to `O=CCCC(=O)O` [succinic semialdehyde], the “NADPH-dependent SSA reduction, absorbance plate assay” value was “we purified recombinant WT and mutant AKR7A2 protein to test for changes in NADPH-dependent turnover”.
